Results reported in patent EP0528146A1, “N-phenylthiourea derivatives and pharmaceutical use thereof” (SANDOZ LTD., priority 1991, dated 1993).

Experiments:
Conditions in all cases: in supplemented diet
HDL-cholesterol = assay: Test A: In vivo HDL-cholesterol test; design: species or system Male Sprague-Dawley rats
Description: a) Test A: In vivo HDL-cholesterol test: Male Sprague-Dawley rats weighing 200-225 g are housed two per cage and fed Purina Rodent Chow Special Mix 5001-S supplemented with 0.25 % cholic acid and 0.75 % cholesterol by Purina and water ad libitum for seven or eight days. Each test substance is then administered to a group of six rats in the supplemented diet for eight or twenty-one days, the test substance constituing 0.005-0.20 % of the diet. Body weight and food consumption data are recorded prior to diet administration, prior to test substance administration and at termination. Typical doses of the test substance are 4-200 mg/kg/day. At termination, the rats are anesthetized, sacrificed by exsanguination, the blood is collected, kept on ice while clotting, centrifuged, and the serum is separated. […] Remaining sera aliquots are refrigerated and frozen for storage. HDL is isolated by micro-ultracentrifugation (mUC) or fast protein liquid chromatography (FPLC) techniques. The mUC method is as follows: 175 µl of the 1.06 g/ml density-adjusted blood serum is centrifuged at 42000 rpm in a Beckmann 42.2 Ti rotor at 20°C for 2.5 hours. 95 µl is fractionated from the top, leaving 80 µl in the bottom. FPLC fractionation is performed by Superose^R 6 (highly cross-linked beaded agarose having a dry bead diameter of 20-40 µm) gel permeation chromatography using the method of Kieft et al., J.Lipid Res. 32 (1991) 859-866 modified by the technique described in France et al., Laboratory Robotics and Automation 2 (1990) 155-173. The column buffer is Tris buffered saline solution [i.e. 0.05 M Tris (2-amino-2-hydroxymethyl-1,3-propanediol) and 0.15 M sodium chloride in distilled deionized water (ddH₂O)] containing 0.01 % sodium azide. 200 µl of serum is injected and forty 0.5 ml fractions are collected. Cholesterol is assayed on total, 42.2 Ti rotor bottoms and FPLC fractions using the Sigma Diagnostics kit for the enzymatic determination of cholesterol, Procedure No. 352, modified for use with ninety-six well microtiter plates. The reconstituted reagent (after addition of water) contains 300 U/l cholesterol oxidase, 100 U/l cholesterol esterase, 1000 U/l peroxidase (horseradish), 0.3 mmoles/l 4-aminoantipyrine and 30.0 mmoles/l p-hydroxybenzenesulfonate in a pH 6.5 buffer. This method uses cholesterol esterase to hydrolyze cholesterol esters to free cholesterol. Free cholesterol is oxidized to produce hydrogen peroxide that is used to form a quinoneimine dye. Since the reaction takes place quantitatively, the concentration of the dye, measured colorimetrically, is directly proportional to the cholesterol content of the sample. Calibrator, standard and sample may be diluted with saline if cholesterol concentrations cause readings outside the linear range. 20 µl of calibrator, standard or test sample is mixed with a 200 µl aliquot of reagent in a ninety-six well microtiter plate. Each mixture is incubated at 20°-25° for 25 minutes, and absorbance is determined by a colorimetric microtiter plate reader at 490, 492 or 500 nm. Top cholesterol (i.e. LDL-cholesterol) is determined by subtraction. Quality of micro-ultracentrifugation separation is determined by Corning universal agarose gel electrophoresis with Fat Red 7B stain. FPLC fraction Apo A-I content is assessed by the non-reducing SDS-PAGE method of France et al., J. Lipid Res. 30 (1989) 1997-2004. HDL-cholesterol is quantitated by assessing the cholesterol content of fractions containing Apo A-I and lacking immunoreactive Apo B protein. Other conventional methods may be used to assay the blood serum samples for HDL-cholesterol and total triglyceride content.

Apo A-I = assay: Test B: Apo A-I test (rat Apo A-I ELISA on blood serum of the test animals of Test A); format: in vivo
Description: The Apo A-I blood serum level of the test animals of Test A is determined by rat Apo A-I Enzyme-Linked Immunosorbent Assay (ELISA) as follows:
1. Production and purification of rabbit anti-rat Apo A-I antibody:
Rat Apo A-I is purified from pooled rat blood serum by sequential ultracentrifugation and isolation of rat high-density lipoproteins (HDL). Following delipidation, Apo A-I is resolved from other HDL proteins by gel filtration chromatography. Antisera are raised in three rabbits (Pocono Rabbit Farms, Candensis, PA) by serial subcutaneous injections of purified rat Apo A-I by conventional immunization protocols. After one year of repeated bleedings, antisera are pooled, aliquoted and frozen at -20°. The crude antisera are defrosted, applied to a cyanogen bromide-activated Sepharose^R Cl-4B (beaded agarose having a 60-140 µm dry bead diameter) column to which purified human HDL had been covalently linked, the column is washed with saline, and the purified antibody is eluted with 1 M pH 3 glycine solution. The glycine is removed by dialysis utilizing Tris Buffered Saline Solution to obtain a concentrated solution of purified rabbit anti-rat Apo A-I antibody.
2. Buffers, reagents and standards:
• Sodium carbonate adsorption buffer: 2.25 g of sodium carbonate, 4.40 g of sodium bicarbonate and 0.15 g of sodium azide are dissolved in 1.4 l of ddH₂O, the pH is adjusted to 9.6 with sodium hydroxide, and the buffer is diluted with ddH₂O to a total volume of 1.5 l; • pH 8 0.5 M Tris: a solution of 60.55 g of Tris·HCl (2-amino-2-hydroxymethyl-1,3-propanediol·hydrochloride) in 1.0 l of ddH₂O is adjusted to pH 8.0 with 10 N sodium hydroxide solution; • secondary antibody buffer: 200 ml of pH 8 0.5 M Tris is added to a solution of 40 g of bovine serum albumin (BSA) Cohn Fraction V in 1.8 l of ddH₂O, 0.2 g of sodium azide is added, and 18.0 g of sodium chloride is added; • substrate buffer: 0.1 g of sodium azide is added with stirring to 105.1 g of diethanolamine and 500 ml of ddH₂O, 10 ml of 0.5 M magnesium chloride·hexahydrate solution is added, the pH is adjusted to 9.8 with 12 N hydrochloric acid, and the solution is diluted to a total volume of 1 l with ddH₂O; • 30 x ELISA wash buffer: 525.96 g of sodium chloride, 76.68 g of Tris, 6 g of sodium azide and 30 ml of Tween^R20 [polyoxyethylene (20) sorbitan monolaurate] are combined, the pH is adjusted to 7.3 with 12 N hydrochloric acid, and the solution is diluted to a total volume of 2 l with ddH₂O; • 1 x ELISA wash buffer: 1 volume of 30 x ELISA wash buffer is diluted with 29 volumes of ddH₂O; • sample diluent buffer: 886.34 ml of secondary antibody buffer and 113.66 ml of Tween^R20 are mixed well to obtain an 11.366 % v/v Tween^R20 solution; • standard diluent buffers: (A) 780 mi of secondary antibody buffer and 220 ml of Tween^R20 are mixed well to obtain a 22 % v/v Tween^R20 solution. (B) 890 ml of secondary antibody buffer and 110 ml of Tween^R20 are mixed well to obtain an 11 % v/v Tween^R20 solution; • rat serum pool A: this source of rat blood serum is used to construct the standard curve for each assay. It is calibrated against purified Apo A-I and contains 45 ± 2.7 mg Apo A-I/dl blood serum; • rat serum pool B: this is used as a low internal standard in each assay for monitoring assay drift and contains 40 mg Apo A-I/dl blood serum; • rat serum pool C: this is derived from rats treated with reference compound (gemfibrozil), is used as a high internal standard for monitoring assay drift and contains 70 mg Apo A-I/dl blood serum.
Purified rat Apo A-I from a frozen stock containing 942 µg/ml is diluted in sodium carbonate adsorption buffer to a final concentration of 3.7 µg/ml. Into each well of several Nunc polystyrene ninety-six well microtiter plates is added 100 µl of this solution. Apo A-I is allowed to adsorb onto the plates for 48 hours at 4°. […]

Total triglycerides = Total triglycerides in blood serum of the rats of Test A; format: in vivo, Male Sprague-Dawley rats
Description: Male Sprague-Dawley rats weighing 200-225 g are housed two per cage and fed Purina Rodent Chow Special Mix 5001-S supplemented with 0.25 % cholic acid and 0.75 % cholesterol by Purina and water ad libitum for seven or eight days. Each test substance is then administered to a group of six rats in the supplemented diet for eight or twenty-one days, the test substance constituing 0.005-0.20 % of the diet. Body weight and food consumption data are recorded prior to diet administration, prior to test substance administration and at termination. Typical doses of the test substance are 4-200 mg/kg/day.
At termination, the rats are anesthetized, sacrificed by exsanguination, the blood is collected, kept on ice while clotting, centrifuged, and the serum is separated. […] Remaining sera aliquots are refrigerated and frozen for storage.
Total triglycerides are assayed on blood serum using the Boehringer Mannheim Diagnostics Reagentset^R Triglycerides-GB kit (Cat. No. 877557) modified for microtiter plate assays as follows: The reagents are prepared according to the described method. 100 µl of Working Solution 1 and 20 µl of dilute blood serum [1:1 blood serum:saline (saline is 0.15 M sodium chloride in ddH₂O)] are added to each well of a ninety-six well microtiter plate, mixed and incubated at 20°-25° for at least 5 minutes. 100 µl of working solution 2 is added to each well, and the contents are mixed and incubated at 20°-25° for at least 5 minutes and read at 490, 492 or 500 nm. The total triglyceride content in mg/dl of blood serum is calculated by comparing the absorbance with the absorbance of known samples.
Other conventional methods may be used to assay the blood serum samples for HDL-cholesterol and total triglyceride content.

[1] = duration of treatment 8 days, dose mg/kg/day: Example 1 60, Example 2 79, Gemfibrozil 50
[2] = duration of treatment 21 days, dose mg/kg/day: Example 1 65, Example 2 73, Gemfibrozil 44

Row | SMILES | HDL-cholesterol level increase (%) (HDL-cholesterol; [1]) | HDL-cholesterol level increase (%) (HDL-cholesterol; [2]) | Apo-I level increase (%) (Apo A-I; [1]) | Apo-I level increase (%) (Apo A-I; [2]) | Total triglycerides level decrease (%) (Total triglycerides; [1]) | Total triglycerides level decrease (%) (Total triglycerides; [2])
1 | CCCNC(=S)Nc1cc(Cl)ccc1C [Example 1, N-(5-Chloro-2-methylphenyl)-N'-propylthiourea] | 225 | 256 | 65 | 47 | 45 | 70
2 | Cc1ccc(Cl)cc1NC(=S)NCC(C)C [Example 2, N-(5-Chloro-2-methylphenyl)-N'-2-methylpropylthiourea] | 267 | 323 | 69 | 102 | 49 | 44
3 | Cc1ccc(C)c(OCCCC(C)(C)C(=O)O)c1 [Gemfibrozil, reference compound] | 100 | 106 | 50 | 44 | 35 | 43
